Data from US11766419B2, “Mebeverine as soluble epoxide hydrolase inhibitor” (Banasthali Vidyapith, priority 2021, dated 2023).

Molecular target: T1, sEH (Homo sapiens, UniProt P34913)
T1 sequence (P34913 1-555): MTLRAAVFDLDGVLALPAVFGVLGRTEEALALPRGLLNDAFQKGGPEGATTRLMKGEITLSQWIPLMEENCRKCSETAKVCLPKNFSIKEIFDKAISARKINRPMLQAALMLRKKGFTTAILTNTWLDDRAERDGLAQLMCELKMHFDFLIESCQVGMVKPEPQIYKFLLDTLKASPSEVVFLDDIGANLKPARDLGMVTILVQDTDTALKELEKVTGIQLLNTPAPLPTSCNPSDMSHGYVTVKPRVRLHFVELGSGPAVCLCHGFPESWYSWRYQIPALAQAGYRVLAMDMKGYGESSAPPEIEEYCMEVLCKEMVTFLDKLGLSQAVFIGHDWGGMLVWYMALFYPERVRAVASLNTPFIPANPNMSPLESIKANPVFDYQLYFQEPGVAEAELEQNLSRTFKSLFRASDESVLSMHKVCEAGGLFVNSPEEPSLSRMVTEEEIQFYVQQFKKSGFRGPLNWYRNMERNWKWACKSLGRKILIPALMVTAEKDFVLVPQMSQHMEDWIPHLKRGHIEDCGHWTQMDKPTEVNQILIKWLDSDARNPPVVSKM
Assay: In vitro sEH activity assay (PHOME substrate, fluorescence)
Assay type: biochemical
Protocol: Hydrolysis of PHOME by sEH results in the release of cyanohydrins that further decomposes to cyanide ion and 6-methoxy-2-naphthaldehyde (highly fluorescent). The fluorescence was analyzed at an excitation and emission wavelength of 330 nm and 465 nm respectively.

Question: `C[C@H](CS)C(=O)N1CCC[C@H]1C(=O)O` [Captopril, captopril] was tested. Which sEH activity (remaining enzyme activity) did it give?
Answer: 100%

Question: And the IC50 (sEH, PHOME substrate)?
Answer: 693 nM
